Common to all, as to type: cell-based
In test [1] the test system is DU-145. Description: Cell growth inhibition assay, prostate cancer cell line DU-145. The settings on record: Homo sapiens, DU-145 prostate cancer cell line. In outline: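 Cancer cells, counted and seeded at 3,000 (DU-145, HCT116) or 5,000 (SW626) cells/well, received graded compound concentrations. Plates incubated 72–96 h at 37° C. with 5% CO2 were then assayed with CellTiter-Glo.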

Test [2] deals with T1, STAT3 (Homo sapiens, UniProt P40763).
T1 construct: plasmid pSTAT3-TA-luc), which contains a stably operating STAT3 promoter; endogenous in cells
Description: STAT3 reporter gene assay (luciferase), LNCaP stable cell line (pSTAT3-TA-luc), IL-6 stimulation. In outline: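 Cytotoxicity was run on a duplicate plate with CellTiter-Glo, while the other plate gave luciferase read-outs from lysed LNCaP pSTAT3-TA-luc reporter cells. Cells were treated with graded compound concentrations plus IL-6 (10 ng/mL final) for 24–48 h in 3% DCC-FBS medium. Unstimulated and stimulated wells served as negative and positive controls.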
For orientation: Reporter assays use an easily measured gene product as a stand-in for the process of interest.

The test system of test [3] is LNCaP. Description: Cell growth inhibition assay, prostate cancer cell line LNCaP (medium with 10 ng/mL IL-6). Particulars: Homo sapiens, medium supplemented with 10 ng/mL of IL-6, 10,000 cells/well.
Test [4] relates to HEL92.1.7. Description: Cell growth inhibition assay, blood cancer cell line HEL92.1.7. Particulars: Homo sapiens, HEL 92.1.7, HEL92.1.7 blood cancer cell line. In outline: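 Cells were seeded at 3,000/well (HCT116, DU-145) or 5,000/well (SW626 and the others) and exposed to serial compound dilutions for 72 to 96 h at 37 °C under 5% CO2. Viability was read as CellTiter-Glo luminescence against 0.1% DMSO and cell-free wells.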

Molecules are shown by their SMILES.

T1 sequence (P40763 whole entry): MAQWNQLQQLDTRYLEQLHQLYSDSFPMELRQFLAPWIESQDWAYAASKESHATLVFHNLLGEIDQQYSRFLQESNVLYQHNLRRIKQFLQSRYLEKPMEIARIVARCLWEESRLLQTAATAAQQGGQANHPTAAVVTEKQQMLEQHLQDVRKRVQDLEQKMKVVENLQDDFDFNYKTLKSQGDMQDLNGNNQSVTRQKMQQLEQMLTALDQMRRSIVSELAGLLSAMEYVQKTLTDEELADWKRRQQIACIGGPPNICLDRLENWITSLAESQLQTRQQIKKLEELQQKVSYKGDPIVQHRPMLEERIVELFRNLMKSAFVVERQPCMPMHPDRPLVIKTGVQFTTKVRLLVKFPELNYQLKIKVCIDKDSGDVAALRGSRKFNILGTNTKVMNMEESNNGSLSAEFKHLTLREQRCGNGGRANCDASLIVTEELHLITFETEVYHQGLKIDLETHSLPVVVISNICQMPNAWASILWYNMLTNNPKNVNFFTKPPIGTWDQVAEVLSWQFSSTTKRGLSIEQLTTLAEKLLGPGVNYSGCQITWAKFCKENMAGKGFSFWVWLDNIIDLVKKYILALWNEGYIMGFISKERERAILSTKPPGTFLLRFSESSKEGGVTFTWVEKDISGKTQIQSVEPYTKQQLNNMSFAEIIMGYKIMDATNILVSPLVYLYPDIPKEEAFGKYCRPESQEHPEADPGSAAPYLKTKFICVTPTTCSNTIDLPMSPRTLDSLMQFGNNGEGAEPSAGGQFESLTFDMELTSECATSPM

As a reminder, the IC50 is the midpoint of a concentration-inhibition curve. A low value points to higher potency. Take `Cn1cccc1C(C)(C)c1cc(Cl)cc(NC(=O)c2cc3cc(NS(C)(=O)=O)ccc3s2)c1` [Example 169, N-(3-chloro-5-(2-(1-methyl-1H-pyrrol-2-yl)propan-2-yl)phenyl)-5-(methylsulfonamido)benzo[b]thiophene-2-carboxamide]: the IC50 amounted to 0.021 µM in test [1], 0.039 µM in test [2], 0.073 µM in test [3] and 0.09 µM in test [4].

As to `CC(C)(c1cc(Cl)cc(NC(=O)c2cc3cc(NS(C)(=O)=O)ccc3s2)c1)n1cnccc1=O` [Example 189], the IC50 in test [1] was above 1.1 µM; in test [2], above 10 µM; in test [3], above 10 µM; in test [4] it was above 1.1 µM.

Consider `CC(C)(c1cc(Cl)cc(NC(=O)c2cc3cc(NS(C)(=O)=O)ccc3s2)c1)n1ncccc1=O` [Example 190, N-(3-chloro-5-(2-(6-oxopyridazin-1(6H)-yl)propan-2-yl)phenyl)-5-(methylsulfonamido)benzo[b]thiophene-2-carboxamide], for which the IC50 in test [1] is above 1.1 µM; in test [2], 2.37 µM; in test [3], above 1.1 µM; in test [4], above 1.1 µM.

As for `CC(C)Oc1cc(OC(F)(F)F)cc(C(C)(C)c2cc(Cl)cc(NC(=O)c3cc4cc(NC(=O)OC(C)(C)C)ccc4s3)c2)c1` [Example 194, tert-butyl (2-((3-chloro-5-(2-(3-isopropoxy-5-(trifluoromethoxy)phenyl)propan-2-yl)phenyl)carbamoyl)benzo[b]thiophen-5-yl)carbamate], the IC50 in test [1] is above 1.1 µM; in test [2], above 10 µM; in test [3], above 1.1 µM; in test [4], above 1.1 µM.

For the compound `COCCS(=O)(=O)Nc1ccc2sc(C(=O)Nc3cc(Cl)cc(C(C)(C)c4cc(OC(C)C)cc(OC(F)(F)F)c4)c3)cc2c1` [Example 195, N-(3-chloro-5-(2-(3-isopropoxy-5-(trifluoromethoxy)phenyl)propan-2-yl)phenyl)-5-((2-methoxyethyl)sulfonamido)benzo[b]thiophene-2-carboxamide], the IC50 in test [1] was 0.007 µM; in test [2], 0.011 µM; in test [3], 0.035 µM; in test [4] it was 0.029 µM.

As to `CC(C)Oc1cc(OC(F)(F)F)cc(C(C)(C)c2cc(Cl)cc(NC(=O)c3cc4cc(NS(=O)(=O)CC5CCOC5)ccc4s3)c2)c1` (stereo not drawn) [Example 196, N-(3-chloro-5-(2-(3-isopropoxy-5-(trifluoromethoxy)phenyl)propan-2-yl)phenyl)-5-(((tetrahydrofuran-3-yl)methyl)sulfonamido)benzo[b]thiophene-2-carboxamide], the IC50 in test [1] is 0.022 µM; in test [2] it was 0.02 µM; in test [3] it was 0.084 µM; in test [4] it was 0.12 µM.

For `Cc1noc(C)c1S(=O)(=O)Nc1ccc2sc(C(=O)Nc3cc(Cl)cc(C(C)(C)c4cc(OC(C)C)cc(OC(F)(F)F)c4)c3)cc2c1` [Example 199, N-(3-chloro-5-(2-(3-isopropoxy-5-(trifluoromethoxy)phenyl)propan-2-yl)phenyl)-5-((3,5-dimethylisoxazole)-4-sulfonamido)benzo[b]thiophene-2-carboxamide], the IC50 is 0.15 µM in test [1], 0.65 µM in test [2], 0.34 µM in test [3] and 0.68 µM in test [4].

As for `CC(C)Oc1cc(OC(F)(F)F)cc(C(C)(C)c2cc(Cl)cc(NC(=O)c3cc4cc(NS(=O)(=O)c5ccn(C)n5)ccc4s3)c2)c1` [Example 200, N-(3-chloro-5-(2-(3-isopropoxy-5-(trifluoromethoxy)phenyl)propan-2-yl)phenyl)-5-((1-methyl-1H-pyrazole)-3-sulfonamido)benzo[b]thiophene-2-carboxamide], the IC50 came to 0.19 µM in test [1], 0.069 µM in test [2], 0.28 µM in test [3] and 0.3 µM in test [4].

`CC(C)Oc1cc(OC(F)(F)F)cc(C(C)(C)c2cc(Cl)cc(NC(=O)c3cc4cc(NS(=O)(=O)c5cnn(C)c5)ccc4s3)c2)c1` [Example 201, N-(3-chloro-5-(2-(3-isopropoxy-5-(trifluoromethoxy)phenyl)propan-2-yl)phenyl)-5-((1-methyl-1H-pyrazole)-4-sulfonamido)benzo[b]thiophene-2-carboxamide]: the IC50 in test [1] stood at 0.018 µM; in test [2] it was 0.029 µM; in test [3], 0.064 µM; in test [4], 0.053 µM.

Turning to `CCS(=O)(=O)Nc1ccc2sc(C(=O)Nc3cc(Cl)cc(C(C)(C)c4cc(OC(C)C)cc(OC(F)(F)F)c4)c3)cc2c1` [Example 202, N-(3-chloro-5-(2-(3-isopropoxy-5-(trifluoromethoxy)phenyl)propan-2-yl)phenyl)-5-(ethylsulfonamido)benzo[b]thiophene-2-carboxamide], the IC50 was 0.007 µM in test [1], 0.007 µM in test [2], 0.014 µM in test [3] and 0.013 µM in test [4].

In the case of `CC(C)Oc1cc(OC(F)(F)F)cc(C(C)(C)c2cc(Cl)cc(NC(=O)c3cc4cc(NS(=O)(=O)C(C)C)ccc4s3)c2)c1` [Example 203, N-(3-chloro-5-(2-(3-isopropoxy-5-(trifluoromethoxy)phenyl)propan-2-yl)phenyl)-5-((1-methylethyl)sulfonamido)benzo[b]thiophene-2-carboxamide], the IC50 stood at 0.008 µM in test [1], 0.006 µM in test [2], 0.023 µM in test [3] and 0.017 µM in test [4].

For `CC(C)Oc1cc(OC(F)(F)F)cc(C(C)(C)c2cc(Cl)cc(NC(=O)c3cc4cc(NS(=O)(=O)C5CCOC5)ccc4s3)c2)c1` (stereo not drawn) [Example 204, N-(3-chloro-5-(2-(3-isopropoxy-5-(trifluoromethoxy)phenyl)propan-2-yl)phenyl)-5-((tetrahydrofuran)-3-sulfonamido)benzo[b]thiophene-2-carboxamide], the IC50 in test [1] came to 0.017 µM; in test [2], 0.051 µM; in test [3] it was 0.095 µM; in test [4], 0.05 µM.

`CC(C)Oc1cc(OC(F)(F)F)cc(C(C)(C)c2cc(Cl)cc(NC(=O)c3cc4cc(NS(=O)(=O)C5CCS(=O)(=O)CC5)ccc4s3)c2)c1` [Example 205, N-(3-chloro-5-(2-(3-isopropoxy-5-(trifluoromethoxy)phenyl)propan-2-yl)phenyl)-5-((1,1-dioxidotetrahydro-2H-thiopyran)-4-sulfonamido)benzo[b]thiophene-2-carboxamide]: the IC50 in test [1] was determined as 0.063 µM; in test [2], 0.3 µM; in test [3], 0.31 µM; in test [4], 0.58 µM.

Consider `CC(=O)N1CCC(S(=O)(=O)Nc2ccc3sc(C(=O)Nc4cc(Cl)cc(C(C)(C)c5cc(OC(C)C)cc(OC(F)(F)F)c5)c4)cc3c2)CC1` [Example 206, 5-((1-acetylpiperidine)-4-sulfonamido)-N-(3-chloro-5-(2-(3-isopropoxy-5-(trifluoromethoxy)phenyl)propan-2-yl)phenyl)benzo[b]thiophene-2-carboxamide], for which the IC50 in test [1] came out at 0.051 µM; in test [2], 0.19 µM; in test [3] it was 0.19 µM; in test [4], 0.35 µM.

Regarding `C=CS(=O)(=O)Nc1ccc2sc(C(=O)Nc3cc(Cl)cc(C(C)(C)c4cc(OC(C)C)cc(OC(F)(F)F)c4)c3)cc2c1` [Example 207, N-(3-chloro-5-(2-(3-isopropoxy-5-(trifluoromethoxy)phenyl)propan-2-yl)phenyl)-5-(vinylsulfonamido)benzo[b]thiophene-2-carboxamide], the IC50 in test [1] is above 1.1 µM; in test [2], 3 µM; in test [3] it was above 1.1 µM; in test [4] it was above 1.1 µM.

Source of the values: patent US10562912B2 (C&C Research Laboratories, priority 2013, dated 2020).
